Assay results published in the NIST ThermoML archive (doi:10.1021/je0504111).

What was measured:
[1] = refractive index (Na D-line) (dimensionless); settings: 298.15 K; 101.33 kPa; Liquid; Standard Abbe refractometry
[2] = 298.15 K; for surface tension liquid-gas: Drop volume; for mass density: 101.33 kPa, Liquid
[3] = refractive index (Na D-line) (dimensionless); xn = mol fraction of the nth substance listed; settings: 298.15 K, 101 kPa, Liquid
[4] = xn = mol fraction of the nth substance listed; settings: 298.15 K; for surface tension liquid-gas: Drop volume; for mass density: 101 kPa, Liquid

Cc1cccc(C)c1 [1,3-dimethylbenzene]
Settings | mass density [kg/m3] | refractive index | surface tension liquid-gas [mN/m]
[1] | – | 1.4945 | –
[2] | 859.78 | – | 28.03

CCCCCC [hexane]
Settings | mass density [kg/m3] | refractive index | surface tension liquid-gas [mN/m]
[1] | – | 1.3723 | –
[2] | 654.7 | – | 17.91

CCCOC(=O)CC [propyl propanoate]
Settings | mass density [kg/m3] | refractive index | surface tension liquid-gas [mN/m]
[1] | – | 1.3905 | –
[2] | 875.53 | – | 24.1

CCCOC(=O)CC [propyl propanoate] + Cc1cccc(C)c1
[3]
Settings | refractive index
x1 = 0.0448 | 1.4894
x1 = 0.1176 | 1.4814
x1 = 0.1702 | 1.4756
x1 = 0.2173 | 1.4704
x1 = 0.3134 | 1.4599
x1 = 0.3923 | 1.4515
x1 = 0.4461 | 1.4458
x1 = 0.4902 | 1.4412
x1 = 0.5421 | 1.4358
x1 = 0.5906 | 1.4308
x1 = 0.6442 | 1.4254
x1 = 0.7474 | 1.4151
x1 = 0.7982 | 1.4101
x1 = 0.8483 | 1.4052
x1 = 0.8942 | 1.4008
x1 = 0.9522 | 1.3952

Cc1cccc(C)c1 [1,3-dimethylbenzene] + CCCCCC
Settings | mass density [kg/m3] | refractive index | surface tension liquid-gas [mN/m]
[3], x2 = 0.0431 | – | 1.4891 | –
[3], x2 = 0.083 | – | 1.484 | –
[3], x2 = 0.1562 | – | 1.4748 | –
[3], x2 = 0.2093 | – | 1.4682 | –
[3], x2 = 0.2997 | – | 1.4569 | –
[3], x2 = 0.3521 | – | 1.4502 | –
[3], x2 = 0.4276 | – | 1.4409 | –
[3], x2 = 0.5167 | – | 1.43 | –
[3], x2 = 0.5798 | – | 1.4223 | –
[3], x2 = 0.6769 | – | 1.4106 | –
[3], x2 = 0.7318 | – | 1.404 | –
[3], x2 = 0.8329 | – | 1.392 | –
[3], x2 = 0.8836 | – | 1.386 | –
[3], x2 = 0.9325 | – | 1.3803 | –
[4], x2 = 0.0431 | 850.57 | – | –
[4], x2 = 0.0522 | – | – | 27.13
[4], x2 = 0.0797 | – | – | 26.69
[4], x2 = 0.0825 | 842.28 | – | –
[4], x2 = 0.1442 | – | – | 25.66
[4], x2 = 0.1572 | 826.64 | – | –
[4], x2 = 0.2008 | – | – | 24.85
[4], x2 = 0.2093 | 815.69 | – | –
[4], x2 = 0.2281 | – | – | 24.48
[4], x2 = 0.2575 | 805.59 | – | –
[4], x2 = 0.2997 | 796.8 | – | –
[4], x2 = 0.3075 | – | – | 23.5
[4], x2 = 0.3563 | 785.03 | – | –
[4], x2 = 0.3603 | – | – | 22.91
[4], x2 = 0.4106 | – | – | 22.39
[4], x2 = 0.4174 | – | – | 22.33
[4], x2 = 0.4278 | 770.24 | – | –
[4], x2 = 0.483 | 758.86 | – | –
[4], x2 = 0.5086 | – | – | 21.5
[4], x2 = 0.5167 | 751.98 | – | –
[4], x2 = 0.5677 | – | – | 21.01
[4], x2 = 0.5833 | 738.31 | – | –
[4], x2 = 0.6294 | 728.97 | – | –
[4], x2 = 0.6431 | – | – | 20.41
[4], x2 = 0.6769 | 719.32 | – | –
[4], x2 = 0.6771 | – | – | 20.15
[4], x2 = 0.7318 | 708.21 | – | –
[4], x2 = 0.7418 | – | – | 19.7
[4], x2 = 0.7668 | – | – | 19.54
[4], x2 = 0.7817 | 698.13 | – | –
[4], x2 = 0.8329 | 687.89 | – | –
[4], x2 = 0.8545 | – | – | 18.99
[4], x2 = 0.8802 | – | – | 18.83
[4], x2 = 0.8914 | 676.22 | – | –
[4], x2 = 0.9446 | 665.65 | – | –
[4], x2 = 0.96 | – | – | 18.29
